Test results published in patent US20180289721A1, “FULVESTRANT COMPOSITIONS” (THEMIS MEDICARE LIMITED, priority 2015, published 2018).
Values after ≈ are worked out from the molar mass of the structure shown. Like-named read-outs stand apart in the source and are kept apart here.

Columns and labels:
[1] = diethylene glycol monoethyl ether as the sole solvent, reported by Patel; cited from earlier work
[2] = Solubility studies of fulvestrant in solvents, co-solvents, oils and release rate modifiers; assay type: physicochemical; settings: for solubility: read-out: Fulvestrant solubility achieved
Description: Solubility studies of fulvestrant were performed using various combinations of solvent, co-solvents, oils and release rate modifiers. The resultant data are shown herein below Table 1.

- Fulvestrant solubility achieved ([2]; Benzyl alcohol (4 v/v %):Diethylene glycol monoethyl ether (q.s. to 1.7 mL)): 300 mg/1.7 mL
- Fulvestrant solubility achieved ([2]; Benzyl alcohol (5 v/v %):Diethylene glycol monoethyl ether (q.s. to 3.3 mL)): 500 mg/3.3 mL
- solubility ([2]; N-methyl pyrrolidone, organic solvent or mixture, N-methyl Pyrolidone): 250 mg/mL
- solubility ([2]; Polyethylene Glycol 400, organic solvent or mixture, Polyethylene Glycol 400): 11.1 mg/mL
- solubility ([2]; TCLS-101 (DMI), organic solvent or mixture, TCLS-101 (DMI)): 30.8 mg/mL
- solubility ([2]; oil or lipid, Benzyl alcohol (4 v/v %):Benzyl benzoate (10 w/v %):Castor oil (50 v/v %):Diethylene glycol monoethyl ether (q.s. to 1 mL)): 56 mg/mL
- solubility ([2]; oil or lipid, Benzyl alcohol (4 v/v %):Diethylene glycol monoethyl ether (31 v/v %):Castor oil (q.s. to 1 mL)): 30 mg/mL
- solubility ([2]; oil or lipid, Benzyl alcohol (4 v/v %):Diethylene glycol monoethyl ether (46 v/v %):Castor oil (q.s. to 1 mL)): 125 mg/mL
- solubility ([2]; oil or lipid, Benzyl alcohol (10 v/v %):Castor oil (50 v/v %):Diethylene glycol monoethyl ether (q.s. to 1 mL)): 151 mg/mL
- solubility ([2]; organic solvent or mixture, Benzyl alcohol (2 v/v %):Diethylene glycol monoethyl ether (q.s. to 1 mL)): 200 mg/mL
- solubility ([2]; organic solvent or mixture, Benzyl alcohol (2 v/v %):MCT oil (1 v/v %):Diethylene glycol monoethyl ether (q.s. to 1 mL)): 200 mg/mL
- solubility ([2]; organic solvent or mixture, Benzyl alcohol (4 v/v %):Diethylene glycol monoethyl ether (q.s. to 1.7 mL)): 176 mg/mL
- solubility ([2]; organic solvent or mixture, Benzyl alcohol (5 v/v %):Diethylene glycol monoethyl ether (q.s. to 3.3 mL)): 151 mg/mL
SMILES: C[C@]12CC[C@@H]3c4ccc(O)cc4C[C@@H](CCCCCCCCC[S+]([O-])CCCC(F)(F)C(F)(F)F)[C@H]3[C@@H]1CC[C@@H]2O (stereo partly drawn) [Fulvestrant, 7-alpha-[9-[(4,4,5,5,5-pentafluoropentyl)sulfinyl]nonyl]estra-1,3,5(10)-triene-3,17-beta-diol]
- solubility [1]: 58.80 mg/mL (≈ 96.9 mM)
